Experiments:
[1] = system: recurrent angioimmunoblastic T-cell lymphoma patient-derived xenograft; assay: PDX model of recurrent angioimmunoblastic T-cell lymphoma, survival; format: in vivo, mice
Method: Anti-CD45-ADC was further tested in a PDX model of recurrent angioimmunoblastic T-cell lymphoma. A single dose of anti-CD45-ADC (Ab5-DGN549) was administered to a group of mice when tumor levels reached ˜10% in peripheral blood, around day 27. Control groups received either PBS, isotype-ADC, CD45 mAb, ARA-C at 30 mg/kg QDx5, or Dexamethasone at 5 mg/kg Q3Dx10. Long-term disease survival was monitored.

[2] = system: relapsed/refractory acute myeloid leukemia (AML) patient-derived xenograft; assay: PDX model of relapsed/refractory AML, survival; format: in vivo, mice; details: R/R AML PDX; 30 mg/kg QDx5
Method: Anti-malignancy activity of an anti-CD45-ADC was assessed using a patient-derived xenograft (PDX) model of relapsed/refractory acute myeloid leukemia (AML). A single dose of anti-CD45-ADC (Ab5-DGN549) was administered to a group of mice when tumor levels reached ˜10% in peripheral blood, around day 24. Control groups received either PBS, isotype-ADC, CD45 mAb, or ARA-C at 30 mg/kg QDx5. Long-term, disease-free survival was monitored.
The anti-malignancy activity was assessed in a patient-derived xenograft (PDX) model of relapsed/refractory acute myeloid leukemia (AML).

[3] = system: erythroid-specific BCL11A enhancer-edited CD34+ cells; assay: Conditioning and engraftment of BCL11A enhancer-edited CD34+ cells in rhesus macaques; format: in vivo; details: busulfan 5.5 mg/kg×4 days, 25-34 weeks
Method: Rhesus macaques were treated with a single dose of anti-CD45-ADC (Ab5-DGN549) at either 0.2 or 0.3 mg/kg followed by engraftment of erythroid-specific BCL11A enhancer-edited CD34+ cells.
For transplant studies, rhesus macaque CD34+ HSPCs were electroporated with 3×NLS SpCas9 protein and two RNAs targeting the +55 and +58 BCL11A erythroid enhancers.
A similar experiment was performed in Rhesus macaques. Rhesus macaques were treated with either 0.2 or 0.3 mg/kg of an anti-CD45-ADC as a single IV bolus. At day 10, the macaques underwent an HSC transplant with autologous gene-edited BCL11a enhancer −/− cells, and were monitored over time (FIG. 15A). A cohort of macaques were treated with Busulfan (5.5-6 mg/kg QDx4) as a control.
Two additional rhesus macaques were conditioned with 0.2 mg/kg anti-CD45 ADC and infused with autologous HSPCs transduced with a barcoded lentiviral vector.

## Nc1ccn([C@@H]2O[C@H](CO)[C@@H](O)[C@@H]2O)c(=O)n1 [ARA-C, reference compound]
[1]; 30 mg/kg QDx5
  median survival: 48 days
[2]
  median survival: 64 days

## CS(=O)(=O)OCCCCOS(C)(=O)=O [Busulfan, reference compound]
[3]
  T cell editing: 8-31%

## C[C@@H]1C[C@H]2[C@@H]3CCC4=CC(=O)C=C[C@]4(C)[C@@]3(F)[C@@H](O)C[C@]2(C)[C@@]1(O)C(=O)CO [Dexamethasone]
[1]; 5 mg/kg Q3Dx10
  median survival: 48 days

— patent US20260102505A1, “ANTI-CD45-IGN ANTIBODY DRUG CONJUGATES AND USES THEREOF” (Vor Biopharma Inc., priority 2022, published 2026)
